Assay results taken from US9302999B2, “Substituted triazoles as herbicides” (E. I. DU PONT DE NEMOURS AND COMPANY, priority 2012, dated 2016).
Where two headings read alike, the source gives them in different places.

How the values were obtained:
Format in all cases: in vivo
[1] = system: barnyardgrass (Echinochloa crus-galli); experiment: Test C flooded paddy test: barnyardgrass; details: Echinochloa crus-galli, scale 0 to 100 (0 no effect, 100 complete control), read-out: Plant response rating, Barnyardgrass; for pest or weed control at 62 g/ha: 62 g ai/ha; for pest or weed control at 250 g/ha: 250 g ai/ha; for pest or weed control at 125 g/ha: 125 g ai/ha
How it was run: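 2-leaf stage plants; pots flooded 3 cm above soil; compound applied into paddy water, depth maintained. Greenhouse 13–15 d. Visual rating vs controls, 0–100 (0 = no effect, 100 = complete control); dash = no result.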

[2] = system: blackgrass (Alopecurus myosuroides); experiment: Test D pre-/postemergence: blackgrass
Source text: (§1) Seeds of plant species selected from bluegrass (annual bluegrass, Poa annua), blackgrass (Alopecurus myosuroides), canarygrass (Phalaris minor), chickweed (common chickweed, Stellaria media), galium (catchweed bedstraw, Galium aparine), bromegrass, downy (downy bromegrass, Bromus tectorum), field poppy (Papaver rhoeas), field violet (Viola arvensis), foxtail, green (green foxtail, Setaria viridis), deadnettle (henbit deadnettle, Lamium amplexicaule), ryegrass, Italian (Italian ryegrass, Lolium multiflorum), kochia (Kochia scoparia), lambsquarters (Chenopodium album), oilseed rape (Brassica napus), pigweed (Amaranthus retroflexus), Russian thistle (Salsola iberica), chamomile (scentless chamomile, Matricaria inodora), speedwell (bird's-eye speedwell, Veronica persica), barley, spring (spring barley, Hordeum vulgare), wheat, spring (spring wheat, Triticum aestivum), buckwheat, wild (wild buckwheat, Polygonum convolvulus), mustard, wild (wild mustard, Sinapis arvensis), oat, wild (wild oat, Avena fatua), radish, wild (wild radish, Raphanus raphanistrum), windgrass (Apera spica-venti), barley, winter (winter barley, Hordeum vulgare), and wheat, winter (winter wheat, Triticum aestivum) were planted into a silt loam soil and treated preemergence with test chemicals formulated in a non-phytotoxic solvent mixture which included a surfactant. At the same time, these same crop and weed species were planted in pots containing the planting medium comprising spaghnum peat moss, vermiculite, wetting agent and starter nutrients and treated with postemergence applications of the test chemicals formulated in the same manner. Plants ranged in height from 2 to 18 cm (1- to 4-leaf stage).
(§2) Treated plants and controls were maintained in a controlled growth environment for 14 to 21 days after which time all species were compared to controls and visually evaluated. Plant response ratings, summarized in Table D, are based on a scale of 0 to 100 where 0 is no effect and 100 is complete control. A dash (-) response means no test result.

[3] = system: galium (catchweed bedstraw, Galium aparine); experiment: Test D pre-/postemergence: galium; details: for Plant response rating, Galium: scale 0 to 100
Source text: as §1, §2

[4] = system: Russian thistle (Salsola iberica); experiment: Test D pre-/postemergence: Russian thistle
Source text: as §1, §2

[5] = system: ryegrass, Italian (Italian ryegrass, Lolium multiflorum); experiment: Test D pre-/postemergence: ryegrass, Italian
Source text: as §1, §2

[6] = system: radish, wild (wild radish, Raphanus raphanistrum); experiment: Test D pre-/postemergence: radish, wild
Source text: as §1, §2

[7] = Flood (flooded paddy test), visual rating after 13 to 15 days
[8] = Postemergence, 31 g ai/ha, scale 0 to 100 (0 no effect, 100 complete control)
[9] = Postemergence, 62 g ai/ha, scale 0 to 100 (0 no effect, 100 complete control)
[10] = Postemergence, 125 g ai/ha, scale 0 to 100, 0 no effect, 100 complete control
[11] = Postemergence, 250 g ai/ha, scale 0 to 100 (0 no effect, 100 complete control)
[12] = Preemergence, 31 g ai/ha, scale 0 to 100, 0 no effect, 100 complete control
[13] = Preemergence, 62 g ai/ha, scale 0 to 100
[14] = Preemergence, 125 g ai/ha, scale 0 to 100
[15] = Preemergence, 250 g ai/ha, scale 0 to 100
[16] = Postemergence, 16 g ai/ha, scale 0 to 100
[17] = Preemergence, 16 g ai/ha, scale 0 to 100, 0 no effect, 100 complete control

SMILES | pest or weed control at 62 g/ha [1, 7] [%] | pest or weed control at 250 g/ha [1, 7] [%] | Plant response rating: Blackgrass [2, 8] | Plant response rating: Blackgrass [2, 9] | Plant response rating: Blackgrass [2, 10] | Plant response rating: Blackgrass [2, 11] | Plant response rating, Blackgrass [2, 12] | Plant response rating, Blackgrass [2, 13] | Plant response rating: Galium [3, 8] | Plant response rating: Galium [3, 9] | Plant response rating: Galium [3, 10] | Plant response rating: Russian Thistle [4, 8] | Plant response rating: Russian Thistle [4, 9] | Plant response rating: Russian Thistle [4, 10] | Plant response rating: Ryegrass, Italian [5, 8] | Plant response rating: Ryegrass, Italian [5, 9] | Plant response rating: Ryegrass, Italian [5, 10] | Plant response rating: Radish, Wild [6, 8] | Plant response rating: Radish, Wild [6, 9] | Plant response rating: Radish, Wild [6, 10] | further results
Cc1nn(-c2ccc(C(F)(F)F)cc2)nc1Oc1csc(C(F)(F)F)c1 [Compound 1, 4-methyl-2-[4-(trifluoromethyl)phenyl]-5-[[5-(trifluoromethyl)-3-thienyl]oxy]-2H-1,2,3-triazole] | 0 | 0 |  |  |  |  |  |  |  |  |  |  |  |  |  |  |  |  |  |  | 
FC(F)(F)COc1nn(-c2ccc(C(F)(F)F)cc2)nc1Cc1ccnc(C(F)(F)F)c1 [Compound 14, 4-[[5-(2,2,2-trifluoroethoxy)-2-[4-(trifluoromethyl)phenyl]-2H-1,2,3-triazol-4-yl]methyl]-2-(trifluoromethyl)pyridine] | 50 | 70 | 25 | 35 | 70 | 85 | 0 | 0 | 45 | 55 | 55 | 0 | 75 | 100 | 5 | 20 | 25 | 70 | 85 | 100 | Plant response rating, Blackgrass [2, 14]: 10; Plant response rating, Blackgrass [2, 15]: 60; Plant response rating: Galium [3, 11]: 70; Plant response rating, Galium ([3]; Preemergence, 62 g ai/ha): 0; Plant response rating, Galium ([3]; Preemergence, 125 g ai/ha): 100; Plant response rating, Galium ([3]; Preemergence, 250 g ai/ha): 100; Plant response rating: Russian Thistle [4, 11]: 100; Plant response rating, Russian Thistle [4, 12]: 0; Plant response rating, Russian Thistle [4, 13]: 0; Plant response rating, Russian Thistle [4, 14]: 10; Plant response rating, Russian Thistle [4, 15]: 40; Plant response rating: Ryegrass, Italian [5, 11]: 35; Plant response rating, Ryegrass, Italian [5, 12]: 0; Plant response rating, Ryegrass, Italian [5, 13]: 25; Plant response rating, Ryegrass, Italian [5, 14]: 25; Plant response rating, Ryegrass, Italian [5, 15]: 50; Plant response rating: Radish, Wild [6, 11]: 100; Plant response rating, Radish, Wild [6, 13]: 40; Plant response rating, Radish, Wild [6, 14]: 100; Plant response rating, Radish, Wild [6, 15]: 100
COCc1nn(-c2ccc(C(F)(F)F)cc2)nc1Oc1cccc(OC(F)(F)F)c1 [Compound 115, 4-(methoxymethyl)-5-[3-(trifluoromethoxy)phenoxy]-2-[4-(trifluoromethyl)phenyl]-2H-1,2,3-triazole] |  | 60 |  |  |  |  |  |  |  |  |  |  |  |  |  |  |  |  |  |  | pest or weed control at 125 g/ha [1, 7]: 45%; pest or weed control at 62 g/ha ([1]; Flood): 40%
FCc1nn(-c2ccc(C(F)(F)F)cc2)nc1Oc1cccc(OC(F)(F)F)c1 [Compound 116, 4-(fluoromethyl)-5-[3-(trifluoromethoxy)phenoxy]-2-[4-(trifluoromethyl)phenyl]-2H-1,2,3-triazole] |  | 60 |  |  |  |  |  |  |  |  |  |  |  |  |  |  |  |  |  |  | pest or weed control at 125 g/ha [1, 7]: 40%; pest or weed control at 62 g/ha ([1]; Flood): 35%
COc1nn(-c2ccc(C(F)(F)F)cc2)nc1Cc1ccnc(C(F)F)c1 [Compound 138] |  |  | 50 | 70 | 80 | 85 |  |  | 75 | 80 | 90 | 75 | 90 | 95 | 25 | 35 | 40 | 80 | 95 | 100 | Plant response rating, Blackgrass [2, 16]: 30; Plant response rating: Galium [3, 11]: 100; Plant response rating, Galium ([3]; Postemergence, 16 g ai/ha): 60; Plant response rating: Russian Thistle [4, 11]: 100; Plant response rating, Russian Thistle [4, 16]: 50; Plant response rating: Ryegrass, Italian [5, 11]: 50; Plant response rating, Ryegrass, Italian [5, 16]: 10; Plant response rating: Radish, Wild [6, 11]: 100; Plant response rating, Radish, Wild [6, 16]: 80
Cc1nn(-c2ccc(F)c(C(F)(F)F)c2)nc1Cc1ccnc(C(F)(F)F)c1 [Compound 156] |  |  | 15 | 35 | 60 |  | 5 | 15 | 75 | 75 | 80 | 85 | 90 | 80 | 15 | 10 | 25 | 85 | 100 | 100 | Plant response rating, Blackgrass [2, 16]: 10; Plant response rating, Blackgrass [2, 17]: 0; Plant response rating, Blackgrass [2, 14]: 70; Plant response rating, Galium ([3]; Postemergence, 16 g ai/ha): 70; Plant response rating, Russian Thistle [4, 16]: 60; Plant response rating, Ryegrass, Italian [5, 16]: 5; Plant response rating, Ryegrass, Italian [5, 17]: 0; Plant response rating, Ryegrass, Italian [5, 12]: 5; Plant response rating, Ryegrass, Italian [5, 13]: 5; Plant response rating, Ryegrass, Italian [5, 14]: 60; Plant response rating, Radish, Wild [6, 16]: 65; Plant response rating, Radish, Wild [6, 17]: 5; Plant response rating, Radish, Wild [6, 12]: 10; Plant response rating, Radish, Wild [6, 13]: 100; Plant response rating, Radish, Wild [6, 14]: 100
